# Source: patent US10030047B2 (Hoffmann-La Roche Inc., priority 2015, dated 2018)
# Tested on: A. baumannii strain ATCC19606
# Assay: Minimum inhibitory concentration (MIC) determination, microbroth dilution (CLSI)
# Assay type: cell-based
# Settings: Acinetobacter baumannii; A. baumannii ATCC19606; CAMHB; read after 20 hours; >=80% growth inhibition; read-out: ATCC19606 MIC
# Outline: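 CLSI broth microdilution in cation-adjusted Mueller Hinton broth with twofold compound dilutions and ~5×10^5 CFU/ml inoculum, incubated at 35±2 °C. MIC read after 20 h as lowest concentration inhibiting ≥80% of growth, by eye and OD 600 nm.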
row,SMILES,MIC [mg/L]
1,"CN1C(=O)[C@H](CCCCN)NC(=O)[C@H](CCCN)NCc2ccccc2Sc2c(Cl)cc(Cl)cc2CNC(=O)[C@@H]1Cc1c[nH]c2ccccc12 [Example 42, (12S,15S,18S)-15-(4-Amino-butyl)-18-(3-amino-propyl)-4,6-dichloro-12-(1H-indol-3-ylmethyl)-13-methyl-2-thia-10,13,16,19-tetraaza-tricyclo[19.4.0.0*3,8*]pentacosa-1(25),3,5,7,21,23-hexaene-11,14,17-trione]",1
2,"CCN1C(=O)[C@H](CCCCN)NC(=O)[C@H](CCCN)NCc2ccccc2Sc2ccc(Cl)cc2CNC(=O)[C@@H]1Cc1c[nH]c2ccccc12 [Example 43, (12S,15S,18S)-15-(4-Amino-butyl)-18-(3-amino-propyl)-6-chloro-13-ethyl-12-(1H-indol-3-ylmethyl)-2-thia-10,13,16,19-tetraaza-tricyclo[19.4.0.0*3,8*]pentacosa-1(21),3,5,7,22,24-hexaene-11,14,17-trione]",1
3,"CCN1C(=O)[C@H](CCCCN)NC(=O)[C@H](CCCN)NCc2ccccc2Sc2c(C)cccc2CNC(=O)[C@@H]1Cc1c[nH]c2ccccc12 [Example 46, (12S,15S,18S)-15-(4-Amino-butyl)-18-(3-amino-propyl)-13-ethyl-12-(1H-indol-3-ylmethyl)-4-methyl-2-thia-10,13,16,19-tetraaza-tricyclo[19.4.0.0*3,8*]pentacosa-1(21),3,5,7,22,24-hexaene-11,14,17-trione]",1
4,"CN1C(=O)[C@H](CCCCN)NC(=O)[C@H](CCCN)NCc2ccccc2Sc2ccc(F)cc2CNC(=O)[C@@H]1Cc1c[nH]c2ccccc12 [Example 47, (12S,15S,18S)-15-(4-Amino-butyl)-18-(3-amino-propyl)-6-fluoro-12-(1H-indol-3-ylmethyl)-13-methyl-2-thia-10,13,16,19-tetraaza-tricyclo[19.4.0.0*3,8*]pentacosa-1(25),3,5,7,21,23-hexaene-11,14,17-trione]",4
5,"CNCCCC[C@@H]1NCc2ccccc2Sc2c(Cl)cccc2CNC(=O)[C@H](Cc2c[nH]c3ccccc23)N(C)C(=O)[C@H](CCCCN)NC1=O [Example 48, (12S,15S,18S)-15-(4-Amino-butyl)-4-chloro-12-(1H-indol-3-ylmethyl)-13-methyl-18-(4-methylamino-butyl)-2-thia-10,13,16,19-tetraaza-tricyclo[19.4.0.0*3,8*]pentacosa-1(21),3,5,7,22,24-hexaene-11,14,17-trione]",2
6,"Cc1cccc2c1Sc1ncccc1CN[C@@H](CCCN)C(=O)N[C@@H](CCCCN)C(=O)N(C)[C@@H](Cc1c[nH]c3ccccc13)C(=O)NC2 [Example 51, (11S,14S,17S)-14-(4-Amino-butyl)-11-(3-amino-propyl)-17-(1H-indol-3-ylmethyl)-16,25-dimethyl-2-thia-4,10,13,16,19-pentaaza-tricyclo[19.4.0.0*3,8*]pentacosa-1(25),3,5,7,21,23-hexaene-12,15,18-trione]",4
7,"CN1C(=O)[C@H](CCCCN)NC(=O)[C@H](CCCN)NCc2cccnc2Sc2cccc(C(F)(F)F)c2CNC(=O)[C@@H]1Cc1c[nH]c2ccccc12 [Example 53, (11S,14S,17S)-14-(4-Amino-butyl)-11-(3-amino-propyl)-17-(1H-indol-3-ylmethyl)-16-methyl-22-trifluoromethyl-2-thia-4,10,13,16,19-pentaaza-tricyclo[19.4.0.0*3,8*]pentacosa-1(25),3,5,7,21,23-hexaene-12,15,18-trione]",1
8,"CN1C(=O)[C@H](CCCCN)NC(=O)[C@H](CCCN)NCc2cccnc2Sc2c(Cl)ccc(F)c2CNC(=O)[C@@H]1Cc1c[nH]c2ccccc12 [Example 54, (11S,14S,17S)-14-(4-Amino-butyl)-1-(3-amino-propyl)-25-chloro-22-fluoro-17-(1H-indol-3-ylmethyl)-16-methyl-2-thia-4,10,13,16,19-pentaaza-tricyclo[19.4.0.0*3,8*]pentacosa-1(25),3(8),4,6,21,23-hexaene-12,15,18-trione]",1
9,"CN1C(=O)[C@H](CCCCN)NC(=O)[C@H](CCCN)NCc2cc(F)ccc2Sc2ccccc2CNC(=O)[C@@H]1Cc1c[nH]c2ccccc12 [Example 56, (12S,15S,18S)-15-(4-Amino-butyl)-18-(3-amino-propyl)-23-fluoro-12-(1H-indol-3-ylmethyl)-13-methyl-2-thia-10,13,16,19-tetraaza-tricyclo[19.4.0.0*3,8*]pentacosa-1(25),3,5,7,21,23-hexaene-11,14,17-trione]",16
10,"Cc1[nH]c2ccccc2c1C[C@H]1C(=O)NCc2cc(Cl)cc(Cl)c2Sc2ccccc2CN[C@@H](CCCN)C(=O)N[C@@H](CCCCN)C(=O)N1C [Example 59, (12S,15S,18S)-15-(4-Amino-butyl)-18-(3-amino-propyl)-4,6-dichloro-13-methyl-12-(2-methyl-1H-indol-3-yl)-2-methyl)-2-thia-10,13,16,19-tetraaza-tricyclo[19.4.0.0*3,8*]pentacosa-1(21),3,5,7,22,24-hexaene-11,14,17-trione]",0.5
11,"C[C@@H]1NC(=O)[C@H](Cc2c[nH]c3ccccc23)N(C)C(=O)[C@H](CCCCN)NC(=O)[C@H](CCCN)NCc2ccccc2Sc2c(Cl)cccc21 [Example 60, (9S,12S,15S,18S)-15-(4-Amino-butyl)-18-(3-amino-propyl)-4-chloro-12-(1H-indol-3-ylmethyl)-9,13-dimethyl-2-thia-10,13,16,19-tetraaza-tricyclo[19.4.0.0*3,8*]pentacosa-1(25),3,5,7,21,23-hexaene-11,14,17-trione]",2

# More lines, in order of falling MIC, values ahead:
row,MIC [mg/L],SMILES
1,0.5,"Cc1cc(Cl)c2c(c1)CNC(=O)[C@H](Cc1c[nH]c3ccccc13)N(C)C(=O)[C@H](CCCCN)NC(=O)[C@H](CCCN)NCc1ccccc1S2 [Example 41, (12S,15S,18S)-15-(4-Amino-butyl)-18-(3-amino-propyl)-4-chloro-12-(1H-indol-3-ylmethyl)-6,13-dimethyl-2-thia-10,13,16,19-tetraaza-tricyclo[19.4.0.0*3,8*]pentacosa-1(25),3,5,7,21,23-hexaene-11,14,17-trione]"
2,0.5,"CCN1C(=O)[C@H](CCCCN)NC(=O)[C@H](CCCN)NCc2ccccc2Sc2ccc(OC)cc2CNC(=O)[C@@H]1Cc1c[nH]c2ccccc12 [Example 44, (12S,15S,18S)-15-(4-Amino-butyl)-18-(3-amino-propyl)-13-ethyl-12-(1H-indol-3-ylmethyl)-6-methoxy-2-thia-10,13,16,19-tetraaza-tricyclo[19.4.0.0*3,8*]pentacosa-1(21),3,5,7,22,24-hexaene-11,14,17-trione]"
3,0.5,"CCN1C(=O)[C@H](CCCCN)NC(=O)[C@H](CCCN)NCc2ccccc2Sc2c(Cl)cccc2CNC(=O)[C@@H]1Cc1c[nH]c2ccccc12 [Example 45, (12S,15S,18S)-15-(4-Amino-butyl)-18-(3-amino-propyl)-4-chloro-13-ethyl-12-(1H-indol-3-ylmethyl)-2-thia-10,13,16,19-tetraaza-tricyclo[19.4.0.0*3,8*]pentacosa-1(21),3,5,7,22,24-hexaene-11,14,17-trione]"
4,0.5,"COc1cc(Cl)c2c(c1)CNC(=O)[C@H](Cc1c[nH]c3ccccc13)N(C)C(=O)[C@H](CCCCN)NC(=O)[C@H](CCCN)NCc1ccccc1S2 [Example 49, (12S,15S,18S)-15-(4-Amino-butyl)-18-(3-amino-propyl)-4-chloro-12-(1H-indol-3-ylmethyl)-6-methoxy-13-methyl-2-thia-10,13,16,19-tetraaza-tricyclo[19.4.0.0*3,8*]pentacosa-1(25),3,5,7,21,23-hexaene-11,14,17-trione]"
5,0.5,"CN1C(=O)[C@H](CCCCN)NC(=O)[C@H](CCCN)NCc2cccnc2Sc2ccc(Cl)c(F)c2CNC(=O)[C@@H]1Cc1c[nH]c2ccccc12 [Example 52, (11S,14S,17S)-14-(4-Amino-butyl)-11-(3-amino-propyl)-23-chloro-22-fluoro-17-(1H-indol-3-ylmethyl)-16-methyl-2-thia-4,10,13,16,19-pentaaza-tricyclo[19.4.0.0*3,8*]pentacosa-1(25),3(8),4,6,21,23-hexaene-12,15,18-trione]"
6,0.5,"Cc1cc(Cl)cc2c1Sc1ccccc1CN[C@@H](CCCN)C(=O)N[C@@H](CCCCN)C(=O)N(C)[C@@H](Cc1c[nH]c3ccccc13)C(=O)NC2 [Example 55, (12S,15S,18S)-15-(4-Amino-butyl)-18-(3-amino-propyl)-6-chloro-12-(1H-indol-3-ylmethyl)-4,13-dimethyl-2-thia-10,13,16,19-tetraaza-tricyclo[19.4.0.0*3,8*]pentacosa-1(25),3,5,7,21,23-hexaene-11,14,17-trione]"
7,0.5,"Cc1[nH]c2ccccc2c1C[C@H]1C(=O)NCc2cc(Cl)ccc2Sc2ccccc2CN[C@@H](CCCN)C(=O)N[C@@H](CCCCN)C(=O)N1C [Example 57, (12S,15S,18S)-15-(4-Amino-butyl)-18-(3-amino-propyl)-6-chloro-13-methyl-12-(2-methyl-1H-indol-3-ylmethyl)-2-thia-10,13,16,19-tetraaza-tricyclo[19.4.0.0*3,8*]pentacosa-1(21),3,5,7,22,24-hexaene-11,14,17-trione]"
8,0.5,"Cc1cccc2c1Sc1ccccc1CN[C@@H](CCCN)C(=O)N[C@@H](CCCCN)C(=O)N(C)[C@@H](Cc1c(C)[nH]c3ccccc13)C(=O)NC2 [Example 58, (12S,15S,18S)-15-(4-Amino-butyl)-18-(3-amino-propyl)-4,13-dimethyl-12-(2-methyl-1H-indol-3-ylmethyl)-2-thia-10,13,16,19-tetraaza-tricyclo[19.4.0.0*3,8*]pentacosa-1(21),3,5,7,22,24-hexaene-11,14,17-trione]"
9,0.25,"COc1cc(C)c2c(c1)CNC(=O)[C@H](Cc1c[nH]c3ccccc13)N(C)C(=O)[C@H](CCCCN)NC(=O)[C@H](CCCN)NCc1ccccc1S2 [Example 50, (12S,15S,18S)-15-(4-Amino-butyl)-18-(3-amino-propyl)-12-(1H-indol-3-ylmethyl)-6-methoxy-4,13-dimethyl-2-thia-10,13,16,19-tetraaza-tricyclo[19.4.0.0*3,8*]pentacosa-1(25),3,5,7,21,23-hexaene-11,14,17-trione]"
